Legend:
[1] = Moisture-sorption analysis (Hiden IGAsorp); type: physicochemical; details: 90% RH, 25° C.; listed as Free base
Experimental: Moisture-sorption experiments were performed using a Hiden IGAsorp Moisture Sorption instrument on KX2-391.MSA obtained in accordance with the process of the present invention (Example 4). First, the sample was dried at 0% Relative Humidity (RH) and 25° C. until an equilibrium weight was reached or for a maximum of four hours. The sample was then subjected to an isothermal (25° C.) adsorption scan from 10 to 90% RH in steps of 10%. The sample was allowed to equilibrate to an asymptotic weight at each point for a maximum of four hours. Following adsorption, a desorption scan from 85 to 0% RH (at 25° C.) was run in steps of −10% again allowing a maximum of four hours for equilibration to an asymptotic weight. The sample was then dried for one hour at 80° C. and the resulting solid analyzed by XRPD. […] FIG. 10 depicts percent change of water content as a function of relative humidity for KX2-391.MSA, Form A.
Moisture-sorption experiments were performed using a Hiden IGAsorp Moisture Sorption Instrument on KX2-391.2HCl obtained in accordance with the process of the present invention (Example 3). First, the sample was dried at 0% Relative Humidity (RH) and 25° C. until an equilibrium weight was reached or for a maximum of four hours. The sample was then subjected to an isothermal (25° C.) adsorption scan from 10 to 90% RH in steps of 10%. The sample was allowed to equilibrate to an asymptotic weight at each point for a maximum of four hours. Following adsorption, a desorption scan from 85 to 0% RH (at 25° C.) was run in steps of −10% again allowing a maximum of four hours for equilibration to an asymptotic weight. The sample was then dried for one hour at 80° C. and the resulting solid analyzed by XRPD.

Src protein substrates [2] = assay: Src substrate phosphorylation in human colon cancer cells (HT29); type: cell-based
Excerpt: (§1) Compounds of the invention or salts thereof may be Src signaling inhibitors that bind in the Src peptide substrate site. The activity of various compounds of the invention and salts has been studied in c-Src ([…], constitutively active and transforming) transformed NIH3T3 cells and in human colon cancer cells (HT29).

Src protein substrates [3] = assay: Src substrate phosphorylation in c-Src transformed NIH3T3 cells; type: cell-based; details: c-Src (527F, constitutively active and transforming) transformed NIH3T3 cells
Excerpt: as §1

## O=C(Cc1ccc(-c2ccc(OCCN3CCOCC3)cc2)cn1)NCc1ccccc1 [KX2-391, 2-(5-(4-(2-morpholinoethoxy)phenyl)pyridin-2-yl)-N-benzylacetamide]
[1]
  Moisture Sorption Wt % Water @ 90% RH: 3.7 wt %
Src protein substrates [2]
  phosphorylation level of known Src protein substrates: reduce the phosphorylation level of known Src protein substrates in a dose-dependent fashion
Src protein substrates [3]
  phosphorylation level of known Src protein substrates: reduce the phosphorylation level of known Src protein substrates in a dose-dependent fashion
